Results as given in US20040127537A1 (priority 2002, published 2004).
One block for each molecule: values may come before it.

Key:
[1] = Example 6: buffer capacity titration of parecoxib sodium formulations with added buffer; assay type: physicochemical; conditions: for Improvement in buffer capacity: parecoxib sodium 40 mg/ml f.a.e., acid to adjust pH 8.5 to 7.4, with versus without buffer; for effect of added buffer on buffer capacity: parecoxib sodium formulations tested, PEG 600/WFI
Protocol: The amount of titrant used to titrate each parecoxib sodium/buffer solution was compared with that required to titrate a parecoxib solution without buffer. Percent improvement in buffer capacity was determined by comparing the amount of acid required to adjust pH from 8.5 to 7.4 in the presence versus absence of buffer.

[2] = conversion of parecoxib to valdecoxib after parenteral administration; assay type: in vivo; conditions: human subject
From the text: The term “equal” in this context means equal in molar amount or in absolute amount (i.e., in weight).

[3] = precipitation of parecoxib free acid on downward pH drift of composition; assay type: physicochemical; conditions: parecoxib salt composition, downward pH drift on storage
From the text: Presence of precipitated parecoxib free acid in a parenteral composition is undesirable as it can cause local pain and irritation upon injection.

COX-1 = COX-1 (Homo sapiens, UniProt P23219); conditions: cited from earlier work
[4] = Example 6: solubility of buffers in PEG 600/water solvent liquid; assay type: physicochemical; conditions: solvent liquid 65% PEG 600 and 35% water, room temperature
[5] = Example 3: stability of parecoxib sodium in PEG-containing solvent liquids; assay type: physicochemical; conditions: 70° C., 7 days, FIG. 3
Protocol: (§1) The procedure was similar to that of Example 1. Valdecoxib formed was calculated as a percentage of parecoxib initially present.

[6] = Example 2: stability of parecoxib sodium in solvent liquids with different solubilizers; assay type: physicochemical; conditions: 55° C., 3 days, FIG. 2
Protocol: as §1

[7] = Example 4: storage stability of liquid formulations LF1-LF9 (valdecoxib formed, HPLC); assay type: physicochemical; conditions: PEG/water formulations of Example 4 (PEG 300, 400, 600)
Protocol: Each vial was flushed with nitrogen gas prior to stoppering.
Valdecoxib was measured by HPLC and was calculated as a percentage of parecoxib initially present.

[8] = Example 1: stability of parecoxib sodium in candidate solubilizers (valdecoxib formed, HPLC); assay type: physicochemical; conditions: 40 mg/ml f.a.e., 70° C., 7 days, FIG. 1
Protocol: Formulations were prepared and sealed in Type I vials. […] Valdecoxib formed was calculated as a percentage of parecoxib initially present.

[9] = cited from earlier work

Chain of COX-1 (P23219 24-599): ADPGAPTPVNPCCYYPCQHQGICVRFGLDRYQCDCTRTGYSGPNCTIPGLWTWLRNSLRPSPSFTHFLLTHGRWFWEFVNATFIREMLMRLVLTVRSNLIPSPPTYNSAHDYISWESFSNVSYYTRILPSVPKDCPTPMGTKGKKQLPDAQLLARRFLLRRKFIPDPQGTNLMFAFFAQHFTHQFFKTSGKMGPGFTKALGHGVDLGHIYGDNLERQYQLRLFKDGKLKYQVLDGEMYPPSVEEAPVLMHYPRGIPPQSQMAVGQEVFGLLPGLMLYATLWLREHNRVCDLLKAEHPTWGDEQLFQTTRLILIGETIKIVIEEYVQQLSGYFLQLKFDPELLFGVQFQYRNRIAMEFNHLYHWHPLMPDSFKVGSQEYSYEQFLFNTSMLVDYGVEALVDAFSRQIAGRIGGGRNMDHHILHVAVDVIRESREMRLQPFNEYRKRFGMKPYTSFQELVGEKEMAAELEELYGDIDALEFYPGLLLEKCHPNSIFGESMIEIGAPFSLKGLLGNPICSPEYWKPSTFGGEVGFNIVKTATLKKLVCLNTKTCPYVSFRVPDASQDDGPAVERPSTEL

Improvement in buffer capacity ([1]; PEG 600/WFI 65/35 % by weight): 14-37%^1 | effect of added buffer on buffer capacity [1]: further improved buffer capacity
Structure (SMILES): O=C1O[C@H]([C@@H](O)CO)C([O-])=C1O.[Na+] [sodium ascorbate]

Structure (SMILES): CCC(=O)NS(=O)(=O)c1ccc(-c2c(-c3ccccc3)noc2C)cc1 [parecoxib, N-[[4-(5-methyl-3-phenylisoxazol-4-yl)phenyl]sulfonyl]propanamide]
conversion to valdecoxib after parenteral administration [2]: rapidly and completely converted to valdecoxib | pH of the composition below which parecoxib precipitates in free acid form [3]: below 7.4 | in vitro inhibitory activity against COX-1 (COX-1): weak in vitro inhibitory activity

Structure (SMILES): CC(O)C(=O)[O-].[Na+] (stereo not drawn) [sodium lactate]
Improvement in buffer capacity ([1]; PEG 600/WFI 65/35 % by weight): negligible

Solubility > 0.01 M [4]: no
Structure (SMILES): N[C@@H](Cc1c[nH]cn1)C(=O)O [histidine]

Structure (SMILES): N=C(N)NCCC[C@H](N)C(=O)O [L-arginine]
Improvement in buffer capacity ([1]; PEG 600/WFI 65/35 % by weight): negligible

Structure (SMILES): CC(=O)[O-].[Na+] [sodium acetate]
Improvement in buffer capacity ([1]; PEG 600/WFI 55/45 % by weight): negligible | Improvement in buffer capacity ([1]; PEG 600/WFI 65/35 % by weight): negligible

Structure (SMILES): CCC(=O)NS(=O)(=O)c1ccc(-c2c(-c3ccccc3)noc2C)cc1 [parecoxib sodium]
buffering effect of parecoxib sodium itself ([1]; less concentrated PEG solutions): weaker buffering effect | buffering effect of parecoxib sodium itself ([1]; more highly concentrated PEG solutions): excellent buffer | stability (valdecoxib formed) ([5]; 65% PEG 300, PEG 400 or PEG 600 in water): acceptably stable | valdecoxib formed, comparison of PEG grades ([5]; 65% PEG 600 or PEG 400 versus 65% PEG 300 in water): less valdecoxib formed | stability (valdecoxib formed) ([6]; propylene glycol containing solvent liquids): less so | stability (valdecoxib formed) ([6]; solvent liquids comprising PEG 300, ethanol or DMAC, with or without water): stable | conversion to valdecoxib ([6]; solvent liquids comprising glycerin): significant conversion to valdecoxib | parecoxib sodium stability as a function of PEG molecular weight [7]: increases with increasing PEG molecular weight | valdecoxib formed (stability) ([8]; PEG 300, DMAC, 95% ethanol or 10 mM phosphate buffer pH 8.1 versus propylene glycol): less valdecoxib was formed | conversion of parecoxib to valdecoxib ([8]; in presence of glycerin): very rapid

Improvement in buffer capacity ([1]; PEG 600/WFI 55/45 % by weight): negligible | Improvement in buffer capacity ([1]; PEG 600/WFI 65/35 % by weight): negligible
Structure (SMILES): NCC(=O)O [glycine]

Structure (SMILES): O=C([O-])/C=C\C(=O)[O-].[Na+].[Na+] [sodium maleate]
Improvement in buffer capacity ([1]; PEG 600/WFI 65/35 % by weight): 21% | effect of added buffer on buffer capacity [1]: further improved buffer capacity

Structure (SMILES): Cc1onc(-c2ccccc2)c1-c1ccc(S(N)(=O)=O)cc1 [valdecoxib]
solubility in water [9]: about 10 μg/ml | in vitro inhibitory activity against COX-1 (COX-1): weak inhibitor

Improvement in buffer capacity ([1]; PEG 600/WFI 55/45 % by weight): 229% | Improvement in buffer capacity ([1]; PEG 600/WFI 65/35 % by weight): 63% | effect of added buffer on buffer capacity [1]: further improved buffer capacity | Solubility > 0.01 M [4]: yes
Structure (SMILES): NC(CO)(CO)CO [tris, 2-amino-2-(hydroxymethyl)-1,3-propanediol]
